Laboratory results as given in DBAASP.
Values after ≈ are worked out from the molar mass of the structure shown. One block for each compound: values may come before it.

Key:
Test in all cases: ≥ marks a high value that may be exact or a test limit, other limits are often not marked, values filed in µg/mL are converted to µM
[1] = system: Candida albicans ATCC 10231
[2] = system: Pseudomonas aeruginosa ATCC 15692
Staphylococcus capitis 1 = system: Staphylococcus capitis 1
[3] = system: Staphylococcus aureus ATCC 25923
[4] = system: Yersinia pseudotuberculosis YPIII
Acinetobacter junii RT-4 = system: Acinetobacter junii RT-4
[5] = system: Acinetobacter baumannii ATCC 19606
[6] = system: Escherichia coli ATCC 25922
[7] = system: Pseudomonas syringae pv. tabaci 1918NCPPB
Saccharomyces cerevisiae = system: Saccharomyces cerevisiae
[8] = system: Staphylococcus aureus Cowan 1
[9] = system: Streptococcus pyogenes ATCC 21547
Escherichia coli D21 = system: Escherichia coli D21
[10] = system: Staphylococcus epidermidis ATCC 12228
[11] = system: Schizosaccharomyces pombe
[12] = system: Enterococcus faecalis ATCC 29212
Bacillus megaterium Bm11 = system: Bacillus megaterium Bm11
[13] = system: Pseudomonas aeruginosa ATCC 27853
[14] = system: Proteus vulgaris NCTC 4635
[15] = system: Staphylococcus aureus ATCC 6538
[16] = system: Pseudomonas aeruginosa ATCC 9027
[17] = system: Bacillus subtilis ATCC 9372
[18] = system: Escherichia coli ATCC 8739
[19] = system: Salmonella typhimurium KCTC 1926
[20] = system: Staphylococcus epidermidis KCTC 3096
[21] = system: Bacillus subtilis KCTC 1918
[22] = system: Candida albicans TIMM 1768
[23] = system: Trichosporon beigelii KCTC 7707
[24] = system: Pseudomonas aeruginosa KCTC 1637
[25] = system: Saccharomyces cerevisiae KCTC 7296
Vibrio cholerae non-O1 = system: Vibrio cholerae non-O1
Escherichia coli O157:H7 = system: Escherichia coli O157:H7
[26] = system: Salmonella enterica subsp. enterica serovar Typhi DMST 22842
Vibrio cholerae non-O139 = system: Vibrio cholerae non-O139
Escherichia coli ML-35 = system: Escherichia coli ML-35
[27] = system: Salmonella enterica subsp. enterica serovar Typhimurium ATCC 14028
[28] = system: Serratia marcescens ATCC 8100

MIC [1]: 12 µM (≈ 20 µg/mL) | MIC [2]: 24 µM (≈ 40 µg/mL) | MIC (Staphylococcus capitis 1): 6 µM (≈ 10 µg/mL) | MIC [3]: 6 µM (≈ 10 µg/mL) | MIC [4]: 6 µM (≈ 10 µg/mL) | MIC (Acinetobacter junii RT-4): 6 µM (≈ 10 µg/mL) | MIC [5]: 6 µM (≈ 10 µg/mL) | MIC [6]: 12 µM (≈ 20 µg/mL) | MIC [7]: 12 µM (≈ 20 µg/mL) | MIC (Saccharomyces cerevisiae): 12 µM (≈ 20 µg/mL) | MIC [8]: 6 µM (≈ 10 µg/mL) | MIC [9]: 6 µM (≈ 10 µg/mL) | MIC (Escherichia coli D21): ≥ 48 µM | MIC [10]: 6 µM (≈ 10 µg/mL) | MIC [11]: 6 µM (≈ 10 µg/mL) | MIC [12]: 12 µM (≈ 20 µg/mL) | MIC (Bacillus megaterium Bm11): 6 µM (≈ 10 µg/mL) | MIC [13]: 48 µM (≈ 80.1 µg/mL)
Structure (SMILES): CC[C@H](C)[C@H](NC(=O)[C@H](CCCN=C(N)N)NC(=O)CNC(=O)[C@H](CC(C)C)NC(=O)[C@H](Cc1ccccc1)NC(=O)[C@H](CCCN=C(N)N)NC(=O)[C@H](CO)NC(=O)[C@H](Cc1ccccc1)NC(=O)[C@H](Cc1c[nH]c2ccccc12)NC(=O)[C@H](CCC(N)=O)NC(=O)[C@@H](NC(=O)[C@@H](N)Cc1ccccc1)C(C)C)C(=O)N[C@@H](CC(C)C)C(N)=O [FVQWFSRFLGRIL]

MIC [1]: 24 µM (≈ 40.7 µg/mL) | MIC [2]: 24 µM (≈ 40.7 µg/mL) | MIC (Staphylococcus capitis 1): 6 µM (≈ 10.2 µg/mL) | MIC [3]: 6 µM (≈ 10.2 µg/mL) | MIC [4]: 6 µM (≈ 10.2 µg/mL) | MIC (Acinetobacter junii RT-4): 12 µM (≈ 20.4 µg/mL) | MIC [5]: 6 µM (≈ 10.2 µg/mL) | MIC [6]: 48 µM (≈ 81.4 µg/mL) | MIC [7]: 6 µM (≈ 10.2 µg/mL) | MIC (Saccharomyces cerevisiae): 24 µM (≈ 40.7 µg/mL) | MIC [8]: 6 µM (≈ 10.2 µg/mL) | MIC [9]: 3 µM (≈ 5.09 µg/mL) | MIC (Escherichia coli D21): 24 µM (≈ 40.7 µg/mL) | MIC [10]: 6 µM (≈ 10.2 µg/mL) | MIC [11]: 12 µM (≈ 20.4 µg/mL) | MIC [12]: 24 µM (≈ 40.7 µg/mL) | MIC (Bacillus megaterium Bm11): 3 µM (≈ 5.09 µg/mL) | MIC [13]: 24 µM (≈ 40.7 µg/mL)
Structure (SMILES): CC[C@H](C)[C@H](NC(=O)[C@H](CCCN=C(N)N)NC(=O)CNC(=O)[C@H](CC(C)C)NC(=O)[C@H](Cc1ccccc1)NC(=O)[C@H](CCCN=C(N)N)NC(=O)[C@H](CO)NC(=O)[C@H](Cc1ccccc1)NC(=O)[C@H](Cc1c[nH]c2ccccc12)NC(=O)[C@H](CCCN=C(N)N)NC(=O)[C@@H](NC(=O)[C@@H](N)Cc1ccccc1)C(C)C)C(=O)N[C@@H](CC(C)C)C(N)=O [FVRWFSRFLGRIL]

MIC [14]: ≥ 1290 µM | MIC [15]: > 1290 µM | MIC [16]: 1290 µM (≈ 1020 µg/mL) | MIC [17]: ≥ 1290 µM | MIC [18]: ≥ 1290 µM
Structure (SMILES): CC[C@H](C)[C@H](NC(=O)[C@@H](NC(=O)[C@H](CC(=O)O)NC(=O)[C@H](Cc1ccccc1)NC(=O)[C@H](CC(C)C)NC(=O)CN)C(C)C)C(=O)N[C@@H](CCCCN)C(=O)O [GLFDVIK]

MIC [19]: 0.2 µM (≈ 0.353 µg/mL) | MIC [20]: 3.1 µM (≈ 5.47 µg/mL) | MIC [21]: 3.1 µM (≈ 5.47 µg/mL) | MIC [22]: 12.5 µM (≈ 22 µg/mL) | MIC [23]: 3.1 µM (≈ 5.47 µg/mL) | MIC [24]: 3.1 µM (≈ 5.47 µg/mL) | MIC [25]: 12.5 µM (≈ 22 µg/mL)
Structure (SMILES): CC(C)C[C@H](NC(=O)[C@H](CCCCN)NC(=O)[C@H](CC(C)C)NC(=O)[C@H](CCCCN)NC(=O)[C@H](CC(C)C)NC(=O)[C@@H]1CCCN1C(=O)[C@H](CCCCN)NC(=O)[C@H](CCCCN)NC(=O)[C@H](CC(C)C)NC(=O)[C@H](CC(C)C)NC(=O)[C@H](CCCCN)NC(=O)[C@H](CCCCN)NC(=O)[C@H](Cc1c[nH]c2ccccc12)NC(=O)[C@@H](N)CCCCN)C(N)=O [KWKKLLKKPLKLKL]

MIC [19]: 0.2 µM (≈ 0.375 µg/mL) | MIC [20]: 1.6 µM (≈ 3 µg/mL) | MIC [21]: 3.1 µM (≈ 5.82 µg/mL) | MIC [22]: 12.5 µM (≈ 23.5 µg/mL) | MIC [23]: 1.6 µM (≈ 3 µg/mL) | MIC [24]: 3.1 µM (≈ 5.82 µg/mL) | MIC [25]: 12.5 µM (≈ 23.5 µg/mL)
Structure (SMILES): CC(C)C[C@H](NC(=O)[C@H](CCCCN)NC(=O)[C@H](CCCCN)NC(=O)[C@H](CC(C)C)NC(=O)[C@H](CC(C)C)NC(=O)[C@H](CCCCN)NC(=O)[C@H](CCCCN)NC(=O)[C@H](CC(C)C)NC(=O)[C@H](CC(C)C)NC(=O)[C@@H]1CCCN1C(=O)[C@H](CCCCN)NC(=O)[C@H](CC(C)C)NC(=O)[C@H](CCCCN)NC(=O)[C@H](Cc1c[nH]c2ccccc12)NC(=O)[C@@H](N)CCCCN)C(N)=O [KWKLKPLLKKLLKKL]

MIC [3]: 18.9 µM (≈ 46 µg/mL) | MIC [6]: 4.52 µM (≈ 11 µg/mL) | MIC (Escherichia coli O157:H7): 4.52 µM (≈ 11 µg/mL) | MIC [26]: 9.45 µM (≈ 23 µg/mL) | MIC [10]: 9.45 µM (≈ 23 µg/mL) | MIC [13]: 37.4 µM (≈ 91 µg/mL)
Structure (SMILES): CC(C)[C@H](NC(=O)CNC(=O)[C@@H](N)CC(N)=O)C(=O)N[C@@H](CCC(N)=O)C(=O)N1CCC[C@H]1C(=O)N[C@@H](CCCCN)C(=O)N[C@@H](Cc1ccc(O)cc1)C(=O)N[C@@H](CCCCN)C(=O)N[C@@H](Cc1c[nH]c2ccccc12)C(=O)N[C@@H](Cc1c[nH]c2ccccc12)C(=O)N[C@@H](CCCCN)C(=O)N[C@@H](Cc1c[nH]c2ccccc12)C(=O)N[C@@H](Cc1c[nH]c2ccccc12)C(=O)N[C@@H](CCCCN)C(=O)N[C@@H](CCCCN)C(=O)N[C@@H](Cc1c[nH]c2ccccc12)C(=O)N[C@@H](Cc1c[nH]c2ccccc12)C(N)=O [NGVQPKYKWWKWWKKWW]
MIC (Vibrio cholerae non-O1): 4.52 µM (≈ 11 µg/mL) | MIC (Vibrio cholerae non-O139): 4.52 µM (≈ 11 µg/mL)

MIC [3]: > 128 µM | MIC (Escherichia coli ML-35): ≥ 128 µM | MIC [27]: > 128 µM | MIC [6]: > 128 µM | MIC [28]: ≥ 128 µM
Structure (SMILES): CC[C@H](C)[C@H](NC(=O)[C@@H]1CCCN1C(=O)[C@H](CCCN=C(N)N)NC(=O)[C@@H]1CCCN1C(=O)CNC(=O)[C@@H]1CCCN1C(=O)[C@H](CCCN=C(N)N)NC(=O)[C@@H]1CCCN1C(=O)[C@H](Cc1ccccc1)NC(=O)[C@@H]1CCCN1C(=O)[C@H](CC(C)C)NC(=O)[C@@H]1CCCN1C(=O)[C@H](CCCN=C(N)N)NC(=O)[C@@H]1CCCN1C(=O)[C@@H](NC(=O)[C@@H]1CCCN1C(=O)[C@H](CCCN=C(N)N)NC(=O)[C@@H]1CCCN1C(=O)CNC(=O)[C@@H]1CCCN1C(=O)[C@H](CCCN=C(N)N)NC(=O)[C@@H]1CCCN1C(=O)[C@H](Cc1ccccc1)NC(=O)[C@@H]1CCCN1C(=O)[C@H](CC(C)C)NC(=O)[C@@H]1CCCN1C(=O)[C@H](CCCN=C(N)N)NC(=O)[C@@H]1CCCN1)[C@@H](C)CC)C(=O)O [PRPLPFPRPGPRPIPRPLPFPRPGPRPI]
